In the supplement of paper PMC11451515:

Assays:
Assay in all cases: AUC of viability dose-response curve (% viability x log10 dose units); higher = less sensitive
Details in all cases: 48 h
P12-Ichikawa = test system: P12-Ichikawa
How it was run: (§1)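 Leukemia cells adapted to each medium were seeded in 1536-well plates (500 or 1000 cells/well). They were dosed with library compounds in DMSO at 11 threefold doses, 47 μM to 0.79 nM, for 48 h at 37°C. CellTiter-Glo One luminescence was normalised per plate to DMSO and cell-free wells. Area under the curve was integrated by trapezoidal rule over log10 doses on a four-parameter log-logistic fit; curves exceeding full viability were scaled and curves failing quality control removed.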

SEM cells = test system: SEM cells
How it was run: as §1

NOMO1 = test system: NOMO1
How it was run: as §1

[1] = RPMI 5 mM glucose + 10% dialyzed FBS

SMILES	AUC of viability dose-response curve (P12-Ichikawa; HPLM + 10% dialyzed FBS)	AUC of viability dose-response curve (P12-Ichikawa; RPMI 5 mM glucose + 10% FBS)	AUC of viability dose-response curve (P12-Ichikawa; [1])	AUC of viability dose-response curve (SEM cells; HPLM + 10% dialyzed FBS)	AUC of viability dose-response curve (SEM cells; RPMI 5 mM glucose + 10% FBS)	AUC of viability dose-response curve (SEM cells; [1])	AUC of viability dose-response curve (NOMO1; HPLM + 10% dialyzed FBS)	AUC of viability dose-response curve (NOMO1; RPMI 5 mM glucose + 10% FBS)	AUC of viability dose-response curve (NOMO1; [1])
FC1=CC=C(CN2\C=C/C=C(/C(=O)N[C@@H](COC3=CC4=C(NC(=O)N4)C=C3)C5=CC=CC=C5)C2=O)C=C1F	430	365	375	373	409	365	–	–	–
CN(C)/[N+]([O-])=N/Oc1cc(ON[N+](=O)N2CCN(C(=O)c3cc(Cc4n[nH]c(=O)c5ccccc45)ccc3F)CC2)c([N+](=O)[O-])cc1[N+](=O)[O-]	467	469	466	444	446	448	438	460	441
CCCNCC(O)COc1ccccc1C(=O)CCc1ccccc1 (stereo unspecified)	450	452	458	438	444	432	457	391	473
NC1CCC(Nc2nc(Nc3ccc(C(=O)N4CCCCC4)cc3)c3ncn(-c4cccc(F)c4)c3n2)CC1 (stereo unspecified)	429	459	439	436	435	426	437	457	470
CO[C@H]1/C=C/O[C@@]2(C)Oc3c(C)c(O)c4c(O)c(c(/C=N/N5CCN(C)CC5)c(O)c4c3C2=O)NC(=O)/C(C)=C\C=C\[C@H](C)[C@H](O)[C@@H](C)[C@@H](O)[C@@H](C)[C@H](OC(C)=O)[C@@H]1C	441	445	430	–	–	–	431	461	461
Cn1cnc(-c2cc3nccc(Oc4ccc(NC(=S)NC(=O)Cc5ccccc5)cc4F)c3s2)c1	391	374	395	–	–	–	393	395	397
CCCC1=N[N](C)C2=C1\N=C(/NC2=O)C3=CC(=CC=C3OCC)[S+]([O-])(=O)N4CCN(C)CC4	407	385	381	349	356	364	400	385	403
CN1C2=CC(=O)/C(=N/NC(N)=O)C=C2CC1S(=O)(=O)[O-].[Na+] (stereo unspecified)	475	472	459	455	449	447	454	462	461
CN(CCOc1ccc(NS(C)(=O)=O)cc1)CCc1ccc(NS(C)(=O)=O)cc1	469	465	464	444	463	447	451	455	463
COc1cccc2c(NCc3ccccc3)nc(-n3c(N)nc4ccccc43)nc12	428	435	439	369	367	379	453	457	455
FC(F)(F)C1=CC=C2C(SCCCCCO\C3=C\O\C(CN4CCOCC4)=C/C3=O)=CC=NC2=C1	464	457	461	–	–	–	470	477	469
CN1/C=C(\N=C(NC2=CC=C(C=C2)C(=O)N3CCOCC3)/C1=O)/C4=C(C)C(=CC=C4)NC(=O)C5=CC=C(C=C5)C(C)(C)C	458	466	467	468	443	458	466	430	454
CCc1c(O)cc(O)c(C(=O)c2ccc(OCCN3CCOCC3)c(OC)c2)c1CC(=O)N(CCOC)CCOC	399	384	383	383	347	355	359	367	375
CC(Cc1ccc(O)c(O)c1)(NN)C(=O)O (stereo unspecified)	448	467	465	469	466	468	475	453	442
OCCNC1CCCc2c1[nH]c1ccc(-c3ccccc3)cc21 (stereo unspecified)	444	441	446	409	413	416	448	454	453
Cc1cc(SCc2sc(-c3ccc(C(F)(F)F)cc3)nc2C)ccc1OCC(=O)O	471	459	458	453	459	457	447	443	463
C[C@@H](NCc1cc2ccccc2[nH]1)c1cccc2ccccc12	441	434	414	409	406	413	443	428	449
O=[S+]([O-])(O)c1ccc2cc(/N=N/c3cc([S+](=O)([O-])O)c4cccnc4c3O)ccc2c1	462	463	458	–	–	–	455	462	460
NC(=O)c1cnc(-c2ccc(C3(N)CCC3)cc2)c(-c2ccccc2)c1	428	448	432	400	396	394	428	468	460
CC(=O)Oc1cc2c(s1)CCN(C(C(=O)C1CC1)c1ccccc1F)C2.Cl (stereo unspecified)	468	455	452	466	431	453	386	396	396
CC(C)C(=O)Nc1ncc(-c2cc(C(F)F)nn2-c2c(Cl)cccc2Cl)s1	465	460	463	458	465	463	468	472	460
CC1=CC=C2\N=C/3N(CC[C@@]3(O)C(=O)C2=C1)C4=CC=CC=C4	442	420	400	431	438	413	452	403	425
CN[C@H]1[C@H](O[C@@H]2[C@H](O[C@@H]3[C@@H](O)[C@@H](O)[C@@H](NC(=N)N)[C@@H](O)[C@H]3NC(=N)N)O[C@H](C)[C@@]2(O)C=O)O[C@@H](CO)[C@@H](O)[C@H]1O	452	450	424	386	432	455	412	456	449

SMILES	AUC of viability dose-response curve (P12-Ichikawa; HPLM + 10% dialyzed FBS)	AUC of viability dose-response curve (P12-Ichikawa; RPMI 5 mM glucose + 10% FBS)	AUC of viability dose-response curve (P12-Ichikawa; [1])	AUC of viability dose-response curve (SEM cells; HPLM + 10% dialyzed FBS)	AUC of viability dose-response curve (SEM cells; RPMI 5 mM glucose + 10% FBS)	AUC of viability dose-response curve (SEM cells; [1])	AUC of viability dose-response curve (NOMO1; HPLM + 10% dialyzed FBS)	AUC of viability dose-response curve (NOMO1; RPMI 5 mM glucose + 10% FBS)	AUC of viability dose-response curve (NOMO1; [1])
O=[N+]([O-])c1ccc(Nc2ccccc2-c2ccccc2)c2nonc12	432	432	433	–	–	–	451	432	418
CN1\N=N/C2=C(N=C[N]2C1=O)C(N)=O	466	466	452	331	318	306	445	458	450
O=[S+]([O-])(/N=C/c1c(O)ccc2ccccc12)c1cccs1	464	465	468	442	428	440	443	472	455
CCC[C@@H](C=O)NC(=O)[C@H](CC(C)C)NC(=O)[C@H](CC(C)C)NC(=O)OCc1ccccc1	366	359	367	356	296	337	348	334	359
COc1nccc(-c2c(-c3ccc(F)cc3)ncn2C2CCC(O)CC2)n1 (stereo unspecified)	443	465	462	459	320	438	463	458	465
COc1ccc(CC2c3cc(OC)c(OC)cc3CC[N+]2(C)CCC(=O)OCCCCCOC(=O)CC[N+]2(C)CCc3cc(OC)c(OC)cc3C2Cc2ccc(OC)c(OC)c2)cc1OC (stereo unspecified)	439	437	427	412	394	401	406	390	375
NCCCC(O)(P(=O)(O)O)P(=O)(O)O.O.O.O.[Na+]	395	421	398	402	366	382	416	439	456
NC(=O)c1ccc(-c2nc(-c3ccc4c(c3)OCO4)c(-c3ccccn3)[nH]2)cc1	457	429	452	–	–	–	473	466	472
CCc1cccc2c3c([nH]c12)C(CC)(CC(=O)O)OCC3 (stereo unspecified)	466	448	465	454	409	448	452	441	427
C/C(=C\c1csc(C)n1)[C@@H]1C[C@@H]2O[C@]2(C)CCC[C@H](C)[C@H](O)[C@@H](C)C(=O)C(C)(C)[C@@H](O)CC(=O)O1	139	120	184	104	74.6	95.4	138	82	114
Oc1cc2c(cc1O)C1c3ccc(O)c(O)c3OCC1(O)C2 (stereo unspecified)	461	449	469	430	441	447	456	464	459
Cn1cc(-c2cnn3c(N)c(Br)c([C@@H]4CCCNC4)nc23)cn1	358	342	339	300	344	289	352	322	314
COc1cccc(Nc2c(C(N)=O)cnc3c(C)cc([S+](=O)([O-])c4cccc(C(=O)N(C)C)c4)cc23)c1	470	472	469	459	466	468	465	472	469
O=P1(N(CCCl)CCCl)NCCCO1 (stereo unspecified)	409	424	448	413	405	406	416	436	430
CCCCOc1ccc(CC(=O)NO)cc1	464	457	454	440	463	458	417	459	439
COc1ccc(C(=O)CC(=O)c2ccc(C(C)(C)C)cc2)cc1	471	473	476	–	–	–	449	458	465
CO[C@H]1/C=C/O[C@@]2(C)Oc3c(C)c(O)c4c(O)c(c(/C=N\N5CCN(C6CCCC6)CC5)c(O)c4c3C2=O)NC(=O)/C(C)=C\C=C\[C@H](C)[C@H](O)[C@@H](C)[C@@H](O)[C@@H](C)[C@H](OC(C)=O)[C@@H]1C	–	–	–	–	–	–	308	300	304
CNC(=O)c1ccc(N2C(=S)N(c3ccc(C#N)c(C(F)(F)F)c3)C(=O)C2(C)C)cc1F	453	456	457	–	–	–	457	472	460
O=C(c1ccc(/C=C/c2n[nH]c3ccccc23)cc1)N1CCNCC1	332	331	346	–	–	–	434	387	383
COCCCOc1ccnc(C[S+]([O-])c2nc3ccccc3[nH]2)c1C (stereo unspecified)	464	450	449	–	–	–	467	475	460
CCN1\C=C(C(O)=O)/C(=O)C2=C1C=C(N3CCN(C)CC3)C(=C2)F	437	437	426	472	458	450	–	–	–
C[C@H](NC(=O)Cc1cc(F)cc(F)c1)C(=O)N[C@@H]1C(=O)N(C)c2ccccc2-c2ccccc21	–	–	–	373	309	362	386	417	434
CN1CCN(Cc2ccc(NC(=O)Nc3ccc(Oc4cc(NC(=O)C5CC5)ncn4)cc3)cc2C(F)(F)F)CC1	285	289	291	–	–	–	271	278	275
